Assay results taken from the supplement of paper PMC8920030.

What was measured:
Settings in all cases: growth mode: biofilm, 24 h; exposure time: 24 h
colistin [1] = compound: T1, CCC(C)CCCC(=O)N[C@@H](CCN)C(=O)N[C@H](C(=O)N[C@@H](CCN)C(=O)N[C@H]1CCNC(=O)[C@H]([C@@H](C)O)NC(=O)[C@H](CCN)NC(=O)[C@H](CCN)NC(=O)[C@H](CC(C)C)NC(=O)[C@@H](CC(C)C)NC(=O)[C@H](CCN)NC1=O)[C@@H](C)O [colistin]; assay: minimum concentration of killing, 2-log CFU reduction of biofilm (MCK99); higher = more biofilm tolerance
Procedure: (§1)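 Clinical P. aeruginosa isolates were grown as static biofilms for 24 h at 37 °C in LB in half-area 96-well plates, then exposed for 24 h to colistin at 1, 4, 16, 64, 256 or […]. Surviving CFU were counted by spotting serial dilutions. MCK is the lowest tested concentration giving the stated log reduction in CFU versus an untreated control; '>1024' means the reduction was not reached at the top dose, and 1 is the lowest dose tested (≤1).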

tobramycin [2] = compound: T2, NC[C@H]1O[C@H](O[C@H]2[C@H](O)[C@@H](O[C@H]3O[C@H](CO)[C@@H](O)[C@H](N)[C@H]3O)[C@H](N)C[C@@H]2N)[C@H](N)C[C@@H]1O [tobramycin]; assay: minimum concentration of killing, 4-log CFU reduction of biofilm (MCK99.99); higher = more biofilm tolerance
Procedure: as §1, with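 “tobramycin” for “colistin”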

tobramycin [3] = compound: T2, tobramycin; assay: minimum concentration of killing, 2-log CFU reduction of biofilm (MCK99); higher = more biofilm tolerance
Procedure: as §1, with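 “tobramycin” for “colistin”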

colistin [4] = compound: T1, colistin; assay: minimum concentration eradicating biofilm below detection limit (MCK-E); higher = more biofilm tolerance
Procedure: as §1

tobramycin [5] = compound: T2, tobramycin; assay: minimum concentration of killing, 1-log CFU reduction of biofilm (MCK90); higher = more biofilm tolerance
Procedure: as §1, with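 “tobramycin” for “colistin”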

tobramycin [6] = compound: T2, tobramycin; assay: minimum concentration eradicating biofilm below detection limit (MCK-E); higher = more biofilm tolerance
Procedure: as §1, with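 “tobramycin” for “colistin”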

colistin [7] = compound: T1, colistin; assay: minimum concentration of killing, 4-log CFU reduction of biofilm (MCK99.99); higher = more biofilm tolerance
Procedure: as §1

colistin [8] = compound: T1, colistin; assay: minimum concentration of killing, 1-log CFU reduction of biofilm (MCK90); higher = more biofilm tolerance
Procedure: as §1

Row | Test System | minimum concentration of killing (colistin [1]) [µg/mL] | minimum concentration of killing (tobramycin [2]) [µg/mL] | minimum concentration of killing (tobramycin [3]) [µg/mL] | minimum concentration eradicating biofilm below detection limit (colistin [4]) [µg/mL] | minimum concentration of killing (tobramycin [5]) [µg/mL] | minimum concentration eradicating biofilm below detection limit (tobramycin [6]) [µg/mL] | minimum concentration of killing (colistin [7]) [µg/mL] | minimum concentration of killing (colistin [8]) [µg/mL]
1 | Pseudomonas aeruginosa clinical isolate CH2660 | 256 | 64 | 64 | 256 | 4 | 256 | 256 | 64
2 | Pseudomonas aeruginosa clinical isolate CH2672 | 256 | 256 | 64 | 256 | 16 | > 1020 | 256 | 256
3 | Pseudomonas aeruginosa clinical isolate CH2677 | 64 | 1020 | 1020 | 256 | 256 | > 1020 | 256 | 64
4 | Pseudomonas aeruginosa clinical isolate CH5550 | 256 | 1020 | 16 | > 1020 | 16 | 1020 | > 1020 | 256
5 | Pseudomonas aeruginosa clinical isolate CH5596 | 64 | 64 | 4 | 256 | 4 | 256 | 256 | 64
6 | Pseudomonas aeruginosa clinical isolate CH5597 | 64 | 256 | 64 | 64 | ≤ 1 | 256 | 64 | 64
7 | Pseudomonas aeruginosa clinical isolate CH5621 | 256 | > 1020 | 1020 | 256 | 64 | > 1020 | 256 | 256
8 | Pseudomonas aeruginosa clinical isolate CH5638 | 256 | 1020 | 16 | 256 | 16 | 1020 | 256 | 64
9 | Pseudomonas aeruginosa clinical isolate ESP001 | 64 | 256 | 256 | 256 | 16 | 1020 | 256 | 64
10 | Pseudomonas aeruginosa clinical isolate ESP002 | 64 | 256 | 256 | 256 | 256 | 256 | 256 | 4
